Experimental findings from US12215082B1 (priority 2023, dated 2025) are described below.

The subject of this assay is multidrug-resistant (MDR) strains of Mycobacterium tuberculosis. The assay can be described thus: microbe, parasite or virus in culture. The format is cell-based. The note with it: 192 h, read-out: MIC MDR-TB.
`O=C(C[n+]1ccc(/C=N/O)cc1)c1ccccc1.[Br-]` [Compound 3a, (E)-4-((Hydroxyimino)methyl)-1-(2-oxo-2-phenylethyl)pyridin-1-ium bromide]: the MIC was 64 µg/mL.

`N#Cc1ccc(C(=O)C[n+]2ccc(/C=N/O)cc2)cc1.[Br-]` [Compound 3d, (E)-1-(2-(4-Cyanophenyl)-2-oxoethyl)-4-((hydroxyimino)methyl)pyridin-1-ium bromide]: the MIC amounted to 128 µg/mL. On to `O=C(C[n+]1ccc(/C=N/O)cc1)c1ccc(F)cc1.[Br-]` [Compound 3c, (E)-1-(2-(4-Fluorophenyl)-2-oxoethyl)-4-((hydroxyimino)methyl)pyridin-1-ium bromide], for which the MIC amounted to 128 µg/mL.

As to `O=C(C[n+]1ccc(/C=N/O)cc1)c1ccc(Br)cc1.[Br-]` [Compound 3b, (E)-1-(2-(4-Bromophenyl)-2-oxoethyl)-4-((hydroxyimino)methyl)pyridin-1-ium bromide], the MIC was 64 µg/mL.

Turning to `O=C(C[n+]1ccc(/C=N/O)cc1)c1ccccc1[N+](=O)[O-].[Br-]` [Compound 3e, (E)-4-((Hydroxyimino)methyl)-1-(2-(2-nitrophenyl)-2-oxoethyl)pyridin-1-ium bromide], the MIC is 64 µg/mL.
